Data taken from the NIST ThermoML archive (doi:10.1021/je900598y).
Numbers after ± are expanded uncertainties.

Legend:
[1] = excess molar enthalpy (molar enthalpy of mixing); xn = mol fraction of the nth substance listed; conditions: 298.15 K, Liquid, Calvet calorimetry
[2] = 298.15 K; 101.33 kPa; Liquid

CCCCC(=O)OC(=O)CCCC [pentanoic anhydride] + CCCCCCCCCCCC
[1]
Conditions	excess molar enthalpy [kcal/mol]
x1 = 0.0248	0.0469 ± 0.000693
x1 = 0.0484	0.0865 ± 0.00117
x1 = 0.0709	0.118 ± 0.00155
x1 = 0.0923	0.146 ± 0.00189
x1 = 0.1128	0.169 ± 0.00217
x1 = 0.1324	0.189 ± 0.00239
x1 = 0.1511	0.207 ± 0.00263
x1 = 0.1691	0.222 ± 0.00287
x1 = 0.1914	0.239 ± 0.00311
x1 = 0.2126	0.253 ± 0.00311
x1 = 0.2327	0.265 ± 0.00335
x1 = 0.2518	0.276 ± 0.00359
x1 = 0.2699	0.285 ± 0.00359
x1 = 0.2827	0.292 ± 0.00359
x1 = 0.3038	0.299 ± 0.00382
x1 = 0.3195	0.305 ± 0.00382
x1 = 0.3411	0.315 ± 0.00406
x1 = 0.3488	0.317 ± 0.00406
x1 = 0.3569	0.319 ± 0.00406
x1 = 0.3654	0.321 ± 0.00406
x1 = 0.3743	0.323 ± 0.00406
x1 = 0.3837	0.325 ± 0.00406
x1 = 0.3935	0.327 ± 0.00406
x1 = 0.4025	0.328 ± 0.00406
x1 = 0.4118	0.329 ± 0.00406
x1 = 0.4217	0.33 ± 0.00406
x1 = 0.432	0.331 ± 0.00406
x1 = 0.4428	0.332 ± 0.00406
x1 = 0.4542	0.333 ± 0.0043
x1 = 0.4644	0.333 ± 0.0043
x1 = 0.475	0.333 ± 0.0043
x1 = 0.4861	0.332 ± 0.00406
x1 = 0.4978	0.332 ± 0.00406
x1 = 0.51	0.331 ± 0.00406
x1 = 0.5229	0.329 ± 0.00406
x1 = 0.5342	0.327 ± 0.00406
x1 = 0.5461	0.326 ± 0.00406
x1 = 0.5585	0.323 ± 0.00406
x1 = 0.5715	0.32 ± 0.00406
x1 = 0.5851	0.317 ± 0.00406
x1 = 0.5993	0.313 ± 0.00406
x1 = 0.6122	0.309 ± 0.00382
x1 = 0.6257	0.305 ± 0.00382
x1 = 0.6398	0.3 ± 0.00382
x1 = 0.6545	0.294 ± 0.00359
x1 = 0.6699	0.287 ± 0.00359
x1 = 0.6861	0.28 ± 0.00359
x1 = 0.7003	0.272 ± 0.00335
x1 = 0.7151	0.265 ± 0.00335
x1 = 0.7305	0.256 ± 0.00311
x1 = 0.7467	0.246 ± 0.00311
x1 = 0.7635	0.235 ± 0.00311
x1 = 0.7811	0.223 ± 0.00287
x1 = 0.7967	0.211 ± 0.00263
x1 = 0.8129	0.199 ± 0.00263
x1 = 0.8298	0.185 ± 0.00237
x1 = 0.8474	0.17 ± 0.00217
x1 = 0.8657	0.153 ± 0.00198
x1 = 0.8849	0.135 ± 0.00174
x1 = 0.9022	0.117 ± 0.00153
x1 = 0.9202	0.0976 ± 0.00129
x1 = 0.9389	0.0768 ± 0.00105
x1 = 0.9584	0.0528 ± 0.000765
x1 = 0.9788	0.028 ± 0.000454

CCCCCC(=O)OC(=O)CCCCC [caproic anhydride] + CCCCCCCCCCCCCCCC
[1]
Conditions	excess molar enthalpy [kcal/mol]
x1 = 0.0307	0.0555 ± 0.000789
x1 = 0.0596	0.0993 ± 0.00131
x1 = 0.0868	0.135 ± 0.00174
x1 = 0.1125	0.163 ± 0.0021
x1 = 0.1368	0.189 ± 0.00239
x1 = 0.1597	0.209 ± 0.00263
x1 = 0.1815	0.227 ± 0.00287
x1 = 0.2022	0.242 ± 0.00311
x1 = 0.2219	0.255 ± 0.00311
x1 = 0.2406	0.266 ± 0.00335
x1 = 0.2627	0.278 ± 0.00359
x1 = 0.282	0.289 ± 0.00359
x1 = 0.2889	0.293 ± 0.00359
x1 = 0.2962	0.296 ± 0.00382
x1 = 0.3038	0.3 ± 0.00382
x1 = 0.3118	0.303 ± 0.00382
x1 = 0.3202	0.307 ± 0.00382
x1 = 0.3291	0.31 ± 0.00382
x1 = 0.3373	0.313 ± 0.00406
x1 = 0.346	0.316 ± 0.00406
x1 = 0.355	0.318 ± 0.00406
x1 = 0.3646	0.321 ± 0.00406
x1 = 0.3747	0.324 ± 0.00406
x1 = 0.3853	0.326 ± 0.00406
x1 = 0.3954	0.329 ± 0.00406
x1 = 0.4059	0.331 ± 0.00406
x1 = 0.417	0.333 ± 0.0043
x1 = 0.4262	0.333 ± 0.0043
x1 = 0.4357	0.334 ± 0.0043
x1 = 0.4457	0.335 ± 0.0043
x1 = 0.4562	0.336 ± 0.0043
x1 = 0.4671	0.336 ± 0.0043
x1 = 0.4787	0.336 ± 0.0043
x1 = 0.4907	0.336 ± 0.0043
x1 = 0.5034	0.335 ± 0.0043
x1 = 0.5144	0.334 ± 0.0043
x1 = 0.5258	0.333 ± 0.0043
x1 = 0.5377	0.331 ± 0.00406
x1 = 0.5502	0.33 ± 0.00406
x1 = 0.5633	0.328 ± 0.00406
x1 = 0.5771	0.325 ± 0.00406
x1 = 0.5893	0.322 ± 0.00406
x1 = 0.602	0.318 ± 0.00406
x1 = 0.6153	0.314 ± 0.00406
x1 = 0.6292	0.31 ± 0.00382
x1 = 0.6437	0.304 ± 0.00382
x1 = 0.6589	0.299 ± 0.00382
x1 = 0.6721	0.293 ± 0.00359
x1 = 0.6857	0.286 ± 0.00359
x1 = 0.6999	0.279 ± 0.00359
x1 = 0.7147	0.271 ± 0.00335
x1 = 0.7287	0.262 ± 0.00335
x1 = 0.7433	0.254 ± 0.00311
x1 = 0.7584	0.244 ± 0.00311
x1 = 0.7742	0.233 ± 0.00287
x1 = 0.7907	0.221 ± 0.00287
x1 = 0.8078	0.208 ± 0.00263
x1 = 0.8233	0.196 ± 0.00239
x1 = 0.8393	0.181 ± 0.00232
x1 = 0.856	0.166 ± 0.00213
x1 = 0.8733	0.15 ± 0.00194
x1 = 0.8914	0.132 ± 0.00172
x1 = 0.9102	0.112 ± 0.00148
x1 = 0.9269	0.0931 ± 0.00124
x1 = 0.9411	0.0725 ± 0.001
x1 = 0.962	0.0493 ± 0.000717
x1 = 0.9807	0.0265 ± 0.000454

CCCCCCCCCCCC [dodecane]
Conditions	mass density [kg/m3]
[2]	745.28 ± 0.64

CCCCC(=O)OC(=O)CCCC [pentanoic anhydride] + CCCCCCCCCCCCCCCC
[1]
Conditions	excess molar enthalpy [kcal/mol]
x1 = 0.0353	0.0694 ± 0.000956
x1 = 0.0683	0.125 ± 0.00165
x1 = 0.099	0.169 ± 0.00217
x1 = 0.1278	0.205 ± 0.00263
x1 = 0.1567	0.236 ± 0.00311
x1 = 0.1837	0.263 ± 0.00335
x1 = 0.209	0.284 ± 0.00359
x1 = 0.2329	0.302 ± 0.00382
x1 = 0.2553	0.317 ± 0.00406
x1 = 0.277	0.33 ± 0.00406
x1 = 0.2993	0.342 ± 0.0043
x1 = 0.3202	0.352 ± 0.0043
x1 = 0.3399	0.36 ± 0.00454
x1 = 0.3619	0.367 ± 0.00454
x1 = 0.3825	0.372 ± 0.00454
x1 = 0.4019	0.377 ± 0.00478
x1 = 0.42	0.38 ± 0.00478
x1 = 0.4371	0.382 ± 0.00478
x1 = 0.4532	0.383 ± 0.00478
x1 = 0.4705	0.384 ± 0.00478
x1 = 0.4866	0.384 ± 0.00478
x1 = 0.5018	0.383 ± 0.00478
x1 = 0.5161	0.382 ± 0.00478
x1 = 0.5296	0.381 ± 0.00478
x1 = 0.5424	0.379 ± 0.00478
x1 = 0.5564	0.377 ± 0.00478
x1 = 0.5695	0.374 ± 0.00478
x1 = 0.5819	0.371 ± 0.00454
x1 = 0.5935	0.368 ± 0.00454
x1 = 0.6046	0.365 ± 0.00454
x1 = 0.6168	0.363 ± 0.00454
x1 = 0.6292	0.358 ± 0.00454
x1 = 0.6421	0.353 ± 0.0043
x1 = 0.6556	0.348 ± 0.0043
x1 = 0.6696	0.342 ± 0.0043
x1 = 0.6842	0.335 ± 0.0043
x1 = 0.697	0.328 ± 0.00406
x1 = 0.7103	0.321 ± 0.00406
x1 = 0.7242	0.313 ± 0.00406
x1 = 0.7386	0.303 ± 0.00382
x1 = 0.7536	0.293 ± 0.00359
x1 = 0.7692	0.282 ± 0.00359
x1 = 0.7832	0.271 ± 0.00335
x1 = 0.7977	0.259 ± 0.00335
x1 = 0.8128	0.246 ± 0.00311
x1 = 0.8285	0.231 ± 0.00287
x1 = 0.8448	0.215 ± 0.00263
x1 = 0.8591	0.199 ± 0.00263
x1 = 0.8739	0.183 ± 0.00234
x1 = 0.8892	0.164 ± 0.0021
x1 = 0.905	0.145 ± 0.00186
x1 = 0.9214	0.123 ± 0.0016
x1 = 0.9361	0.103 ± 0.00136
x1 = 0.9513	0.0797 ± 0.00108
x1 = 0.967	0.0552 ± 0.000789
x1 = 0.9832	0.0282 ± 0.000454

CCCCCC(=O)OC(=O)CCCCC [caproic anhydride]
Conditions	mass density [kg/m3]
[2]	923.96 ± 0.42
